Measurements from patent US8735398B2 (Bristol-Myers Squibb Company, priority 2009, dated 2014).

test system: HCV 1b genotype; assay: HCV replicon assay (HCV-neo replicon cells, wild-type); format: cell-based, Hepatitis C virus; details: HCV 1b genotype replicon; class symbol; read-out: EC50 Range against HCV 1b
How it was run: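 HCV-neo replicon cells (wild-type) and replicon cells carrying NS5A resistance substitutions were treated with compounds; assay per O'Boyle et al. 2005, with luciferase-reporter read-out variants also used.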

Row | SMILES | EC50
1 | CC1(C(=O)N2CCC[C@H]2C(=O)Nc2ccc(-c3cnc(-c4ccc(NC(=O)[C@@H]5CCCN5C(=O)C5(C)CCC(=O)N5)cc4)o3)cc2)CCC(=O)N1 (stereo partly drawn) [Example D-24, (2S,2′S)-N,N′-(4,4′-(oxazole-2,5-diyl)bis(4,1-phenylene))bis(1-(2-methyl-5-oxopyrrolidine-2-carbonyl)pyrrolidine-2-carboxamide)] | 1 to 10 µM

same assay, conditions: HCV 1b genotype replicon; class symbols; read-out: EC50 Range against HCV 1b

Row | SMILES | EC50
2 | CC(C)(C)O[C@@H]1C[C@@H](C(=O)Nc2ccc(-c3cnc(-c4ccc(NC(=O)[C@@H]5C[C@@H](OC(C)(C)C)CN5C(=O)Cc5ccccn5)cc4)o3)cc2)N(C(=O)Cc2ccccn2)C1 [XY-75, (2S,4R,2′S,4′R)-N,N′-(1,3-oxazole-2,5-diyldi-4,1-phenylene)bis(4-tert-butoxy-1-(2-pyridinylacetyl)-2-pyrrolidinecarboxamide)] | 0.00457 to 0.099 µM

same assay, conditions: HCV 1b genotype replicon; read-out: EC50 1b

Row | SMILES | EC50
3 | CC1(C(=O)N2CCC[C@H]2C(=O)Nc2ccc(-c3cnc(-c4ccc(NC(=O)[C@@H]5CCCN5C(=O)C5(C)CCC(=O)N5)cc4)o3)cc2)CCC(=O)N1 (stereo partly drawn) [Example D-24, (2S,2′S)-N,N′-(4,4′-(oxazole-2,5-diyl)bis(4,1-phenylene))bis(1-(2-methyl-5-oxopyrrolidine-2-carbonyl)pyrrolidine-2-carboxamide)] | 5.14 µM

same assay, conditions: Hepatitis C virus, HCV 1b genotype replicon; class symbol; read-out: EC50 Range against HCV 1b

Row | SMILES | EC50
4 | C[C@H](NC(=O)c1cccc(F)n1)C(=O)Nc1ccc(-c2nnc(-c3ccc(NC(=O)[C@H](C)NC(=O)c4cccc(F)n4)cc3)o2)cc1 [RK-29, N,N′-(1,3,4-oxadiazole-2,5-diylbis(4,1-phenyleneimino((2S)-1-oxo-1,2-propanediyl)))bis(6-fluoro-2-pyridinecarboxamide)] | 1 to 10 µM
5 | COc1cccc2c1C=C(Cl)N(c1ccc(-c3ncc(-c4ccc(NC(=O)[C@@H]5C[C@@H]6C[C@@H]6N5C(=O)c5nc(Cl)cc6c(OC)cccc56)cc4)o3)cc1)C2C(=O)N1[C@H](C(N)=O)C[C@@H]2C[C@@H]21 (stereo partly drawn) [CB-4, (1S,3S,5S,1′S,3′S,5′S)-N,N′-(1,3-oxazole-2,5-diyldi-4,1-phenylene)bis(2-((3-chloro-5-methoxy-1-isoquinolinyl)carbonyl)-2-azabicyclo[3.1.0]hexane-3-carboxamide)] | 0.1 to 0.999 µM
6 | CC(C)[C@H](NC(=O)Cc1ccccc1)C(=O)Nc1ccc(-c2cnc(-c3ccc(NC(=O)[C@@H](NC(=O)Cc4ccccc4)C(C)C)cc3)o2)cc1 [JG-12, (2S,2′S)-N,N′-(1,3-oxazole-2,5-diyldi-4,1-phenylene)bis(3-methyl-2-((phenylacetyl)amino)butanamide)] | 0.00457 to 0.099 µM
7 | CO[C@@H](C(=O)N1CCC[C@H]1C(=O)Nc1ccc(-c2cnc(-c3ccc(NC(=O)[C@@H]4CCCN4C(=O)[C@H](OC)c4ccccc4)cc3)o2)cc1)c1ccccc1 [JG-25, (2S,2′S)-N,N′-(1,3-oxazole-2,5-diyldi-4,1-phenylene)bis(1-((2R)-2-methoxy-2-phenylacetyl)-2-pyrrolidinecarboxamide)] | 0.00457 to 0.099 µM
8 | CN(C)[C@@H](C(=O)N1CC[C@@H](NC(=O)Nc2ccc(-c3cnc(-c4ccc(NC(=O)N[C@@H]5CCN(C(=O)[C@@H](c6ccccc6)N(C)C)C5)cc4)o3)cc2)C1)c1ccccc1 [FY-8, N′,N′″-(1,3-oxazole-2,5-diyldi-4,1-phenylene)bis(1-((3R)-1-((2R)-2-(dimethylamino)-2-phenylacetyl)-3-pyrrolidinyl)urea)] | 0.1 to 0.999 µM
9 | CC(=O)N1CCC[C@H]1C(=O)Nc1ccc(-c2cc(-c3ccc(NC(=O)[C@@H]4CCCN4C(C)=O)cc3)[nH]n2)cc1 [OL-29, (2S,2′S)-N,N′-(1H-pyrazole-3,5-diyldi-4,1-phenylene)bis(1-acetyl-2-pyrrolidinecarboxamide)] | 1 to 10 µM
10 | O=C(Nc1ccc(-c2cnc(-c3ccc(NC(=O)[C@@H]4CCCN4C(=O)CC4CC4)cc3)o2)cc1)C1CCCN1C(=O)CC1CC1 (stereo partly drawn) [Example D-20, (2′S)-N,N′-(1,3-oxazole-2,5-diyldi-4,1-phenylene)bis(1-(cyclopropylacetyl)-2-pyrrolidinecarboxamide)] | 0.1 to 0.999 µM
11 | O=C(Nc1ccc(-c2cc(-c3ccc(NC(=O)[C@@H]4CCCN4C(=O)c4ccncc4)cc3)[nH]n2)cc1)[C@@H]1CCCN1C(=O)c1ccncc1 [OL-34, (2S,2′S)-N,N′-(1H-pyrazole-3,5-diyldi-4,1-phenylene)bis(1-isonicotinoyl-2-pyrrolidinecarboxamide)] | 1 to 10 µM
12 | O=C(C(=O)N1CCC[C@H]1C(=O)Nc1ccc(-c2nc[nH]c2-c2ccc(NC(=O)[C@@H]3CCCN3C(=O)C(=O)c3ccccc3)cc2)cc1)c1ccccc1 [JG-42, (2S,2′S)-N,N′-(1H-imidazole-4,5-diyldi-4,1-phenylene)bis(1-(oxo(phenyl)acetyl)-2-pyrrolidinecarboxamide)] | < 0.00457 µM
13 | O=C(Nc1ccc(-c2cc(-c3ccc(NC(=O)[C@@H]4CCCN4C(=O)[C@H](O)c4ccccc4Cl)cc3)[nH]n2)cc1)[C@@H]1CCCN1C(=O)[C@H](O)c1ccccc1Cl [JG-36, (2S,2′S)-N,N′-(1H-pyrazole-3,5-diyldi-4,1-phenylene)bis(1-((2R)-2-(2-chlorophenyl)-2-hydroxyacetyl)-2-pyrrolidinecarboxamide)] | < 0.00457 µM
14 | O=C(Nc1ccc(-c2nnc(-c3ccc(NC(=O)[C@@H]4CCCN4C(=O)CC4CC4)cc3)o2)cc1)[C@@H]1CCCN1C(=O)CC1CC1 [Example D-57, (2S,2′S)-N,N′-(1,3,4-oxadiazole-2,5-diyldi-4,1-phenylene)bis[1-(cyclopropylacetyl)-2-pyrrolidinecarboxamide]] | 1 to 10 µM
15 | O=C(Nc1ccc(-c2ccc(-c3ccc(NC(=O)[C@@H]4CCCN4C(=O)OCc4ccccc4)cc3)o2)cc1)[C@@H]1CCCN1C(=O)OCc1ccccc1 [JG-54, dibenzyl (2S,2′S)-2,2′-(2,5-furandiylbis(4,1-phenylenecarbamoyl))di(1-pyrrolidinecarboxylate)] | 0.1 to 0.999 µM
16 | CC(=O)N1CCC[C@H]1C(=O)Nc1ccc(-c2nnc(-c3ccc(NC(=O)[C@@H]4CCCN4C(C)=O)cc3)o2)cc1 [Example D-55, (2S,2′S)-N,N′-(1,3,4-oxadiazole-2,5-diyldi-4,1-phenylene)bis[1-acetyl-2-pyrrolidinecarboxamide]] | 1 to 10 µM
17 | O=C(Nc1ccc(-c2nnc(-c3ccc(NC(=O)[C@@H]4CCCN4C(=O)OCc4ccccc4)cc3)o2)cc1)[C@@H]1CCCN1C(=O)OCc1ccccc1 [MS-8, (2S,2′S)-2,2′-[1,3,4-oxadiazole-2,5-diylbis(4,1-phenyleneiminocarbonyl)]bis-1-pyrrolidinecarboxylic acid, bis(phenylmethyl) ester] | 0.00457 to 0.099 µM
18 | CC(=O)N1CCC[C@H]1C(=O)Nc1ccc(-c2nc(-c3ccc(NC(=O)[C@@H]4C=CCN4C(=O)[C@@H]4CCCO4)cc3)cs2)cc1 [Example D-52, (2S)-N-[4-[2-[4-[[[(2S)-1-acetyl-2-pyrrolidinyl]carbonyl]amino]phenyl]-4-thiazolyl]phenyl]-2,5-dihydro-1-[[(2S)-tetrahydro-2-furanyl]carbonyl]-1H-pyrrole-2-carboxamide] | 1 to 10 µM

same assay, conditions: Hepatitis C virus, HCV 1b genotype replicon; class symbols; read-out: EC50 Range against HCV 1b

Row | SMILES | EC50
19 | Cn1cccc1CC(=O)N1CCC[C@H]1C(=O)Nc1ccc(-c2cnc(-c3ccc(NC(=O)[C@@H]4CCCN4C(=O)Cc4cccn4C)cc3)o2)cc1 [XY-40, (2S,2′S)-N,N′-(1,3-oxazole-2,5-diyldi-4,1-phenylene)bis(1-((1-methyl-1H-pyrrol-2-yl)acetyl)-2-pyrrolidinecarboxamide)] | 0.1 to 0.999 µM
20 | CC(C)(CCl)C(=O)N1CCC[C@H]1C(=O)Nc1ccc(-c2cnc(-c3ccc(NC(=O)[C@@H]4CCCN4C(=O)C(C)(C)CCl)cc3)o2)cc1 [XY-17, (2S,2′S)-N,N′-(1,3-oxazole-2,5-diyldi-4,1-phenylene)bis(1-(3-chloro-2,2-dimethylpropanoyl)-2-pyrrolidinecarboxamide)] | 0.1 to 0.999 µM
21 | COc1cc(C(=O)N[C@@H](C)C(=O)Nc2ccc(-c3nnc(-c4ccc(NC(=O)[C@H](C)NC(=O)c5cc(Cl)nc(OC)c5)cc4)o3)cc2)cc(Cl)n1 [RK-41, N,N′-(1,3,4-oxadiazole-2,5-diylbis(4,1-phenyleneimino((2S)-1-oxo-1,2-propanediyl)))bis(2-chloro-6-methoxyisonicotinamide)] | 1 to 10 µM
22 | O=C(Nc1ccc(-c2cnc(-c3ccc(NC(=O)[C@@H]4CCCN4C(=O)C4CSC5CCC(=O)N54)cc3)o2)cc1)[C@@H]1CCCN1C(=O)C1CSC2CCC(=O)N21 (stereo partly drawn) [JR-17, (2S,2′S)-N,N′-(2,5-oxazolediyldi-4,1-phenylene)bis[1-[(hexahydro-5-oxopyrrolo[2,1-b]thiazol-3-yl)carbonyl]-2-pyrrolidinecarboxamide]] | 1 to 10 µM
23 | Cc1cccc(CC(=O)N2C[C@H](OC(C)(C)C)C[C@H]2C(=O)Nc2ccc(-c3cnc(-c4ccc(NC(=O)[C@@H]5C[C@@H](OC(C)(C)C)CN5C(=O)Cc5cccc(C)c5)cc4)o3)cc2)c1 [XY-69, (2S,4R,2′S,4′R)-N,N′-(1,3-oxazole-2,5-diyldi-4,1-phenylene)bis(4-tert-butoxy-1-((3-methylphenyl)acetyl)-2-pyrrolidinecarboxamide)] | 0.1 to 0.999 µM
24 | O=C(Nc1ccc(-c2cnc(-c3ccc(NC(=O)[C@@H]4C[C@@H](O)CN4C(=O)CC4CC4)cc3)o2)cc1)[C@@H]1C[C@@H](O)CN1C(=O)CC1CC1 [XY-44, (2S,4R,2′S,4′R)-N,N′-(1,3-oxazole-2,5-diyldi-4,1-phenylene)bis(1-(cyclopropylacetyl)-4-hydroxy-2-pyrrolidinecarboxamide)] | 1 to 10 µM
25 | O=C(Nc1ccc(-c2cnc(-c3ccc(NC(=O)[C@@H]4C[C@@H](O)CN4C(=O)[C@H]4CCCO4)cc3)o2)cc1)[C@@H]1C[C@@H](O)CN1C(=O)[C@H]1CCCO1 [XY-50, (2S,4R,2′S,4′R)-N,N′-(1,3-oxazole-2,5-diyldi-4,1-phenylene)bis(4-hydroxy-1-((2R)-tetrahydro-2-furanylcarbonyl)-2-pyrrolidinecarboxamide)] | 1 to 10 µM
26 | C[C@H](NC(=O)c1cc(Cl)ccn1)C(=O)Nc1ccc(-c2nnc(-c3ccc(NC(=O)[C@H](C)NC(=O)c4cc(Cl)ccn4)cc3)o2)cc1 [RK-37, N,N′-(1,3,4-oxadiazole-2,5-diylbis(4,1-phenyleneimino((2S)-1-oxo-1,2-propanediyl)))bis(4-chloro-2-pyridinecarboxamide)] | 1 to 10 µM

same assay, conditions: Hepatitis C virus, HCV 1b genotype replicon; read-out: EC50 1b

Row | SMILES | EC50
27 | CC(=O)N1CCC[C@H]1C(=O)Nc1ccc(-c2cc(-c3ccc(NC(=O)[C@@H]4CCCN4C(C)=O)cc3)[nH]n2)cc1 [OL-29, (2S,2′S)-N,N′-(1H-pyrazole-3,5-diyldi-4,1-phenylene)bis(1-acetyl-2-pyrrolidinecarboxamide)] | 4.55 µM
28 | O=C(Nc1ccc(-c2nnc(-c3ccc(NC(=O)[C@@H]4CCCN4C(=O)CC4CC4)cc3)o2)cc1)[C@@H]1CCCN1C(=O)CC1CC1 [Example D-57, (2S,2′S)-N,N′-(1,3,4-oxadiazole-2,5-diyldi-4,1-phenylene)bis[1-(cyclopropylacetyl)-2-pyrrolidinecarboxamide]] | 1.95 µM
29 | CC(=O)N1CCC[C@H]1C(=O)Nc1ccc(-c2nnc(-c3ccc(NC(=O)[C@@H]4CCCN4C(C)=O)cc3)o2)cc1 [Example D-55, (2S,2′S)-N,N′-(1,3,4-oxadiazole-2,5-diyldi-4,1-phenylene)bis[1-acetyl-2-pyrrolidinecarboxamide]] | 10 µM
30 | O=C(Nc1ccc(-c2nnc(-c3ccc(NC(=O)[C@@H]4CCCN4C(=O)OCc4ccccc4)cc3)o2)cc1)[C@@H]1CCCN1C(=O)OCc1ccccc1 [MS-8, (2S,2′S)-2,2′-[1,3,4-oxadiazole-2,5-diylbis(4,1-phenyleneiminocarbonyl)]bis-1-pyrrolidinecarboxylic acid, bis(phenylmethyl) ester] | 0.09 µM
